Consider four molecules from patent publication US9040717B2, “Pyrazole-amide compounds and pharmaceutical use thereof” (JAPAN TOBACCO INC., priority 2013, dated 2015).

Data set [1] can be described thus: Metabolic stability test in rat liver microsome. The format is in vitro ADME.
The test system of the next data set is liver PDH activity. Briefly: Ex vivo PDH activation assay, liver. In kind it is in vivo, Sprague-Dawley rats. How it is done: The action of test compound on tissue PDH activity was evaluated. NADH production was detected via p-iodonitrotetrazolium violet (INT)-coupled system to measure PDH activity.
Normal male Sprague-Dawley rats were randomly allocated to the vehicle group and the test compound groups. The vehicle (0.5% aqueous methylcellulose solution, 5 mL/kg) or the test compound was orally administered to the rats. At 5 or 20 hr after administration, the rats were anesthetized with an intraperitoneal injection of sodium pentobarbital (60 mg/kg), and liver slices and epididymal adipose tissues were collected.
To the liver slices were rapidly added 9 volumes of ice-cold homogenization buffer (0.25 mol/L sucrose, 5 mmol/L tris(hydroxymethyl)aminomethane hydrochloride (pH 7.5), 2 mmol/L EDTA), and the mixtures were homogenized using a Polytron homogenizer. The homogenates were centrifuged at 600×g, 4° C. for 10 min to obtain the supernatant. The supernatants (1 mL) were centrifuged at 16,000×g, 4° C. for 10 min to collect the precipitates. The precipitates were washed by resuspension in the homogenization buffer (1 mL) and centrifuged in the same manner. The precipitates were frozen with liquid nitrogen and stored at −80° C. as the liver mitochondrial fraction.
The mitochondrial fractions were thawed and suspended with the sample buffer (0.25 mol/L sucrose, 20 mmol/L tris(hydroxymethyl)aminomethane hydrochloride (pH 7.5), 50 mmol/L potassium chloride, and 1 mL/L 4-(1,1,3,3-tetramethylbutyl)phenyl-polyethylene glycol (Triton X-100)). Active PDH activity (PDHa activity) and total PDH activity (PDHt activity) were measured to evaluate the PDH activity. For the measurement of the PDHt activity, equal amounts of the mitochondrial suspension and the activation buffer (0.25 mol/L sucrose, 20 mmol/L tris(hydroxymethyl)aminomethane hydrochloride (pH 7.5), 50 mmol/L potassium chloride, 1 mL/L Triton X-100, 4 mmol/L calcium chloride, 40 mmol/L magnesium chloride, 10 mmol/L sodium dichloroacetate) were mixed, and the mixtures were incubated at 37° C. for 10 min. Forty microliters of the mitochondrial suspensions diluted with a sample buffer were added to a 96-well microplate for activity measurement and blank measurement. Then 180 μL of the reaction mixture (0.056 mmol/L potassium phosphate buffer (pH 7.5), 5.6 mmol/L DL-carnitine, 2.8 mmol/L NAD, 0.22 mmol/L thiamin pyrophosphate, 0.11 mmol/L Coenzyme A, 1.1 mL/L Triton X-100, 1.1 mmol/L magnesium chloride, 1.1 g/L bovine serum albumin, 0.67 mmol/L INT, 7.2 μmol/L phenazine methosulfate, 28 mmol/L sodium oxamate) was added to each well, and then 20 μL of 50 mmol/L sodium pyruvate for activity measurement or water for blank measurement were added. The mixtures were incubated at room temperature under shading. The absorbances at 500-750 nm, which were attributable to reduction of INT, the final electron acceptor, were measured using a microplate reader over time and the changes in the absorbance were calculated. The PDH activity was calculated by subtraction of the change in absorbance of the blank well from that of the activity measurement well. The percentage of the PDHa activity to the PDHt activity was calculated and taken as an index of the PDH activation.

Data set [2] can be described thus: Metabolic stability test in human liver microsome. The format is in vitro ADME. Particulars: 5 μM, 37° C. As for the experimental part:
Human liver microsome (manufactured by Xenotech, H0620, final concentration (after dilution), 0.2 mg protein/mL) was suspended in 100 mM potassium phosphate buffer (pH 7.4, containing β-nicotinamide adenine dinucleotide phosphate: 1.3 mM, D-glucose-6-phosphate: 3.3 mM, magnesium chloride: 3.3 mM, glucose-6-phosphate dehydrogenase: 0.45 U/mL), and further mixed with a test compound dissolved in MeCN/DMSO (95/5) (final concentration 5 μM). The mixture was incubated at 37° C. for 10 min and 60 min, acetonitrile containing formic acid (final concentration 0.1%) was added, and the mixture was centrifuged. The test compound (unmodified) in the supernatant was measured by high performance liquid chromatography/mass spectrometry (LC/MS) (manufactured by Waters, LC: Acquity UPLC, MS:SQ Detector or TQ Detector). The residual ratio (%) was calculated from the obtained measurement value.
For orientation: Liver microsomes are a subcellular fraction often used to study metabolism.

[3] abbreviates: Table 2, 5 hr after oral 3 mg/kg, non-fasting SD rats, vehicle 13 ± 3, mean ± S.D. (n = 3).
The mark [4] stands for this setting: Table 2, 20 hr after oral 3 mg/kg, non-fasting SD rats, vehicle 13 ± 3, mean ± S.D. (n = 3).

For `CC(C)(O)CCOc1cc(-c2cnn(C(C)(C)C(N)=O)c2)c2c(c1)[C@@](O)(C(F)(F)F)c1ccccc1-2` [Compound (2), 2-{4-[(9R)-9-hydroxy-2-(3-hydroxy-3-methylbutyloxy)-9-(trifluoromethyl)-9H-fluoren-4-yl]-1H-pyrazol-1-yl}-2-methylpropanamide], the “Stability in liver microsome (residual ratio %)” value (from here on “Stability … (residual ratio %)”) is 98.8% in data set [1] (10 min), 100.0% in data set [1] (60 min), 98.8% in data set [2] (10 min) and 96.5% in data set [2] (60 min). Further, the “PDHa activity (% of PDHt activity)” value in the data set on liver PDH activity (Table 3, 5 hr after oral 3 mg/kg, SD rats, vehicle 28 ± 6, mean ± S.D. (n = 3)) was 74 ± 12 % of PDHt activity; in the data set on liver PDH activity (Table 3, 20 hr after oral 3 mg/kg, SD rats, vehicle 28 ± 6, mean ± S.D. (n = 3)), 50 ± 16 % of PDHt activity.
Turning to `CC(C)(O)CCCOc1cc(-c2cnn(C(C)(C)C(N)=O)c2)c2c(c1)[C@@](O)(C(F)(F)F)c1ccccc1-2` [Compound (3), 2-{4-[(9R)-9-hydroxy-2-(4-hydroxy-4-methylpentyloxy)-9-(trifluoromethyl)-9H-fluoren-4-yl]-1H-pyrazol-1-yl}-2-methylpropanamide], the “Stability … (residual ratio %)” value in data set [1] (10 min) is 102.7%; in data set [1] (60 min) it was 95.8%; in data set [2] (10 min), 98.4%; in data set [2] (60 min), 85.9%. Further, the entries for the “PDHa activity (% of PDHt activity)” value with liver PDH activity (setting [3]) and in the data set with liver PDH activity (setting [4]) were 56 ± 8 % of PDHt activity and 32 ± 9 % of PDHt activity, respectively.
Regarding `NC(=O)Cn1cc(-c2cc(OCCC34CC5CC(CC(O)(C5)C3)C4)cc3c2-c2ccccc2[C@]3(O)C(F)(F)F)cn1` [Compound (A), 2-(4-{(9R)-9-Hydroxy-2-[2-(3-hydroxyadamantan-1-yl)ethoxy]-9-(trifluoromethyl)-9H-fluoren-4-yl}-1H-pyrazol-1-yl)acetamide], the “Stability … (residual ratio %)” value in data set [1] (10 min) came to 24.8%; in data set [1] (60 min) it was 0.0%; in data set [2] (10 min), 34.8%; in data set [2] (60 min), 0.0%. Also, the “PDHa activity (% of PDHt activity)” value with liver PDH activity (setting [3]) is reported as 35 ± 6 % of PDHt activity; in the data set with liver PDH activity (setting [4]), 16 ± 10 % of PDHt activity.
On to `Cn1cc(-c2cc(OCC(C)(C)O)cc3c2-c2ccccc2[C@]3(O)C(F)(F)F)cn1` [Compound (B), (9R)-2-(2-Hydroxy-2-methylpropoxy)-4-(1-methyl-1H-pyrazol-4-yl)-9-(trifluoromethyl)-9H-fluoren-9-ol], for which the “Stability … (residual ratio %)” value is 101.1% in data set [1] (10 min), 92.1% in data set [1] (60 min), 98.0% in data set [2] (10 min) and 88.2% in data set [2] (60 min). Also, the “PDHa activity (% of PDHt activity)” value in the data set with liver PDH activity (setting [3]) is on record as 43 ± 7 % of PDHt activity; with liver PDH activity (setting [4]) it was 10 ± 3 % of PDHt activity.
